Earlier results as cited in EP4810022A1, “MICROPARTICLES COMPRISING TIRZEPATIDE OR PHARMACEUTICALLY ACCEPTABLE SALT THEREOF, AND MANUFACTURING METHOD THEREFOR” (Inventage Lab Inc., priority 2024, dated 2025).

Experiments:
[1] = reported
[2] = when taken for one year

Compound | side effects [1] | body weight loss [2]
CC(C)CC(N(C)C)C1(c2ccc(Cl)cc2)CCC1 (stereo not drawn) [sibutramine] | cardiovascular side effects | 
Cc1c(C(=O)NN2CCCCC2)nn(-c2ccc(Cl)cc2Cl)c1-c1ccc(Cl)cc1 [rimonabant] | central nervous system side effects | 
CCCCCCCCCCC[C@@H](C[C@@H]1OC(=O)[C@H]1CCCCCC)OC(=O)[C@H](CC(C)C)NC=O [orlistat] |  | about 4 kg
